JP2017105729A, “ミトコンドリア病の治療剤” (Tohoku University NUC, priority 2015, dated 2017)

What was measured:
[1] = system: Leber disease patient-derived fibroblasts [Leber病患者由来線維芽細胞]; test: Suppression of oxidative-stress (BSO) induced cell death of Leber disease patient fibroblasts: cell viability (MTT assay, Cell Counting Kit-8); format: cell-based; conditions: for minimal effective concentration: Fibroblast, BSO 100 μM 24 h, then compound (0.1, 0.3, 1, 3, 10 μM) 48 h, n=4, Fig. 1B, read-out: concentration at which the decrease in cell viability is suppressed
[2] = system: Leber disease patient-derived fibroblasts [Leber病患者由来線維芽細胞]; test: Suppression of cytotoxicity in BSO-treated Leber disease patient fibroblasts: released LDH activity (Cytotoxicity LDH Assay Kit-WST); format: cell-based; conditions: BSO 100 μM 24 h, then compound (0.1, 0.3, 1, 3, 10 μM) 48 h, n=4; LDH release; Fig. 1C
[3] = system: erythropoietin [エリスロポエチン]; conditions: reported in Patent Literature 2; cited from earlier work
[4] = system: mitochondrial disease [ミトコンドリア病]; conditions: reported in Patent Literature 2; cited from earlier work
[5] = system: mitochondrial encephalomyopathy patients [ミトコンドリア脳筋症患者]; conditions: cited from earlier work
[6] = system: erythropoietin, human liver cancer cell line Hep3B [エリスロポエチン産生ヒト肝臓癌細胞株Hep3B]; test: Erythropoietin production in Hep3B cells in the presence of TNFα (ELISA); format: cell-based; conditions: compound 3 μM with TNFα 220 μg/mL, 24 h, 20% O2; relative to DMSO; Fig. 2

## CCCCS(=N)(=O)CC[C@H](N)C(=O)O (stereo partly drawn) [BSO, L-Buthionine sulphoximine]
[1]; BSO 100 μM (glutathione synthesis inhibitor) alone, Fig. 1A
  cell viability: 細胞生存率が低下する

## O=C(CC(C(=O)O)c1c[nH]c2ccccc12)c1ccc(F)cc1 (centres unmarked) [比較例化合物#4, 4−(4−フルオロフェニル)−2−(1H−インドール−3−イル)−4−オキソ−ブタン酸]
[2]
  concentration at which the cytotoxicity level is lowered: ≥ 10 µM
[3]
  effect of enhancing erythropoietin expression / promoting erythropoietin production: エリスロポエチン産生の促進効果
[1]
  minimal effective concentration: ≥ 10 µM
[4]
  therapeutic effect on mitochondrial disease: ミトコンドリア病の治療効果

## CC1=NN(c2ccccc2)C(=O)C1 [エダラボン, 3−メチル−1−フェニル−2−ピラゾリン−5−オン]
[5]
  effect of stopping enlargement of infarct: 梗塞の拡大を停止する効果
  effect of suppressing edema: 浮腫を抑制する効果

## O=C(CC(C(=O)O)c1c[nH]c2ccccc12)c1ccc(F)cc1F (centres unmarked) [4−(2,4−ジフルオロフェニル)−2−(1H−インドール−3−イル)−4−オキソ−ブタン酸]
[3]
  effect of enhancing erythropoietin expression / promoting erythropoietin production: エリスロポエチン発現増強効果
[4]
  therapeutic effect on mitochondrial disease: ミトコンドリア病の治療効果

## O=C(CC(C(=O)O)c1c[nH]c2cc(F)ccc12)c1ccc(F)cc1F (centres unmarked) [本件化合物#1, 4−(2,4−ジフルオロフェニル)−2−(6−フルオロ−1H−インドール−3−イル)−4−オキソブタン酸]
[6]
  erythropoietin expression level: 増加する

## O=C(CC(C(=O)O)c1c[nH]c2cccc(Cl)c12)c1ccc(F)cc1F (centres unmarked) [本件化合物#5, 2−(4−クロロ−1H−インドール−3−イル)−4−(2,4−ジフルオロフェニル)−4−オキソブタン酸]
[6]
  erythropoietin expression level: 増加する

## Cc1ccc2[nH]cc(C(CC(=O)c3ccc(F)cc3F)C(=O)O)c2c1 (centres unmarked) [本件化合物#6, 4−(2,4−ジフルオロフェニル)−2−(5−メチル−1H−インドール−3−イル)−4−オキソブタン酸]
[2]
  concentration at which the cytotoxicity level is lowered: ≥ 1 µM
[6]
  erythropoietin expression level: 増加する
[1]
  minimal effective concentration: ≥ 1 µM
